Data reported in US8852876B2, “Label free biosensors and cells” (Corning Incorporated, priority 2008, dated 2014).

Assays:
[1] = system: EGF-induced response of quiescent A431 cells; assay: Effect of compound pretreatment on EGF-induced DMR response; assay type: cell-based, human; details: for Effect of pretreatment on 32 nM EGF-induced response: quiescent A431 cells
Protocol: Both A431 and CHO-K1 cells were grown in Dulbecco's modified Eagle's medium (DMEM) supplemented with 10% fetal calf serum, 100 μg/ml penicillin, and 100 μg/ml streptomycin. For cell culture, certain numbers of cells (2×10^5 to 1×10^6), either A431 or CHO-K1, were suspended in […] medium were placed in each well of a 96 well Corning Epic Biosensor microplate, and were cultured at 37° C. in air/5% CO2 for certain time until the cell density reached ˜90% and above (unless specified). The resulted cells were termed as “profilerating” cells. The “quiescent” cells were obtained by culturing the profilerating cells of desired confluencies with a medium containing no or little (˜0.1% fetal bovine serum (FBS)) for at least 16 hours.
During the assays, the cells in 100 μl medium were subject to two 25 μl HBSS buffer containing 20 mM HEPES, pH 7.4, each separated by at least 15 minutes before 50 μl stimulus-containing solution was applied. During all these steps, a parallel angular interrogation system was used to monitor the real time kinetics of cellular responses. For compound effect studies, a modified protocol was used which starts with 50 μl medium, and subject to sequential treatment: 25 μl HBSS buffer twice (each separated by at least 15 minutes), 50 μl compound solution and finally 50 μl stimulus-containing solution.

quiescent A431 cells = assay: H2O2-induced DMR (reactive oxygen species signaling, redox state); assay type: cell-based, human; details: for Effect on cell responses mediated with 1 mM H2O2: src kinase modulators; for DMR signal: 4 mM H2O2
Description: In this study, all optical responses were monitored with a wavelength interrogation system. The RWG biosensor is comprised of three major components for bioassay applications: an Epic™ sensor microplate, an RWG detector, and a liquid handling system. The sensor microplate consists of a glass bottom plate attached to a plastic holy plate of a given SBS format (e.g., 96-well or 384-well), which enables high throughput screening. In a 96 well Epic™ sensor microplate, each well contains one RWG sensor of approximately 3×3 mm^2. The RWG sensor consists of a thin film of dielectric material on the grating presenting glass substrate.
The wavelength interrogation detector system is centered on integrated fiber optics. A broadband light source, generated through a fiber optic and a collimating lens at nominally normal incidence through the bottom of the microplate, is used to illuminate a small region of the grating surface. A detection fiber for recording the reflected light is bundled with the illumination fiber. A series of 8 illumination/detection heads are arranged in a linear fashion, so that reflection spectra are collected from all 8 wells within the same column of a microplate at once. With the spatial-controlled movement, the whole plate is moving across the illumination/detection heads so that each sensor can be addressed multiple times, and each column be addressed in sequence. A series of spectra of the reflected lights are collected and used for analysis. Since this detection system measures the wavelength shift of the reflected lights induced by the cell response in response to stimulation, this approach is referred to the wavelength interrogation system.

[2] = target: T1, protease activated receptors PAR1 and PAR2 (Homo sapiens, UniProt P25116); assay type: cell-based; details: 40 unit/ml thrombin; modulators 10 μM
T1 construct: A431 cells which endogenously express PAR1 and PAR2; endogenous in cells; host or cells: A431
T1 sequence (P25116 22-425): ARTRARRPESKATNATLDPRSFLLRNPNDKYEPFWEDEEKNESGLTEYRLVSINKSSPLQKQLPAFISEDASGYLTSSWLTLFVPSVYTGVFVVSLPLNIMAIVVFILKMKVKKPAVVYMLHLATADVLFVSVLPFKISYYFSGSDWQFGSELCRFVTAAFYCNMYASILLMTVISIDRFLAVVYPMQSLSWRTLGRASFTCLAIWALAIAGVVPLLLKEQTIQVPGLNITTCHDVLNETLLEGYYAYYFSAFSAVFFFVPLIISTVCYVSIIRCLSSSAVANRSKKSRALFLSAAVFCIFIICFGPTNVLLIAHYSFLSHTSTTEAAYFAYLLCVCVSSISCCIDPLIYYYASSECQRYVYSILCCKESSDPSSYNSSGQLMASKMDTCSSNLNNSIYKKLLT
Protocol: (§1) Human epidermoid carcinoma A431 cells (American Type Cell Culture) were grown in Dulbecco's modified Eagle's medium (DMEM) supplemented with 10% fetal bovine serum (FBS), 4.5 g/liter glucose, 2 mM glutamine, and antibiotics. ˜3-7.5×10^4 cells at passage 3 to 5 suspended in 200 μl the DMEM medium containing 10% FBS were placed in each well of a 96 well microplate, and were cultured at 37° C. under air/5% CO2 until ˜95% confluency was reached (˜2-4 days).
(§2) The compound or PAR agonist solutions were made in 1×HBSS in order to match the refractive index between the cell medium and compound solution, thus minimizing the unwanted effect of bulk index change due to the introduction of compound solution which can temporarily overwhelms any DMR signal as it occurs.

[3] = system: protease activated receptors PAR1 and PAR2; assay type: cell-based, human; details: for Effect of pretreatment on trypsin-mediated DMR signal: 100 or 200 nM trypsin, modulators 10 μM; for Effect of pretreatment on DMR induced by thrombin or trypsin: 40 unit/ml thrombin, 200 nM trypsin, αCD up to 8 mM
Protocol: as §1, §2

[4] = system: protease activated receptors PAR1 and PAR2; assay: Fluo-3 Ca2+ mobilization assay with PAR agonists; assay type: cell-based, human; details: for Effect of pretreatment on [Ca2+]i elevation mediated by trypsin or thrombin: cholesterol depletion, αCD up to 8 mM
Protocol: A431 at passage 3 to 5 were grown in Costar™ 96 well clear cell culture microplates until ˜95% confluency, washed twice and starved overnight with the DMEM only, washed with 1×HBSS (1× regular Hank's balanced salt solution, 20 mM HEPES buffer, pH 7.0) in the presence of 2.5 mM probenicid, and labeled in the same buffer containing 4 μM Fluo-3 for 1 hour at room temperature. The cells were then washed twice with buffer, maintained with 100 μl 1×HBSS containing 2.5 mM probenicid. The assay was initiated by transferring 50 μl PAR agonist solution to the cell plate, and calcium signal was recorded over 6 minutes with a 6 sec interval using HTS7000 BioAssay Reader (PerkinElmer Life Science, Boston, Mass.). The assays were carried out at room temperature in order to allow direct comparison with optical sensing data.

[5] = system: endogenous GPCRs in A431 cells; assay: DMR optical biosensor profiling of GPCR agonists; assay type: cell-based, human; details: quiescent A431; first class = Gq-type, second = Gs-type, third = Gi-type, fourth = no significant DMR

Cc1ccc(-c2nn(C(C)(C)C)c3ncnc(N)c23)cc1 [PP1]
Effect of pre-treatment on EGF-induced P-DMR and N-DMR signals ([1]; starved A431 cells, 8 nM EGF, 30-minute pretreatment, GH 0.5 ng/ml, PD98059 0.1 mM, PP1 1 μM, wortmannin 0.1 μM, DIP 50 μM): significantly reduced both the binding and DMR signals
Effect on cell responses mediated with 1 mM H2O2 (quiescent A431 cells): significantly suppressed the H2O2-mediated cell responses

CC(C)(C)n1nc(-c2ccc(Cl)cc2)c2c(N)ncnc21 [PP2]
Effect on cell responses mediated with 1 mM H2O2 (quiescent A431 cells): significantly suppressed the H2O2-mediated cell responses

COC(=O)Nc1nc2ccc(C(=O)c3cccs3)cc2[nH]1 [nocodazole]
Effect of pretreatment on 32 nM EGF-induced response [1]: hardly any effect on the EGF-induced response
Effect of pretreatment on thrombin-mediated DMR signal [2]: neither a stabilizing polymeric F-actin agent phalloidin nor a microtubule disrupter nocodazole had significant effect
Effect of pretreatment on trypsin-mediated DMR signal [3]: neither a stabilizing polymeric F-actin agent phalloidin nor a microtubule disrupter nocodazole had significant effect

C/C1=C/C(=O)O[C@@H]2C[C@@H](CC[C@H](C)/C=C\C=C\CC1)O[C@@](O)([C@@H]1CSC(=O)N1)C2 [latrunculin A]
Effect of pretreatment on 32 nM EGF-induced response [1]: totally abolished the N-DMR signal
Effect of pretreatment on thrombin-mediated DMR signal [2]: completely blocked either thrombin- or trypsin-mediated DMR signal
Effect of pretreatment on trypsin-mediated DMR signal [3]: completely blocked either thrombin- or trypsin-mediated DMR signal

CN(C)CCCn1cc(C2=C(c3c[nH]c4ccccc34)C(=O)NC2=O)c2ccccc21 [GF 109203x]
Effect of pretreatment on 32 nM EGF-induced response [1]: partial attenuation on the response
Effect of pretreatment on thrombin-mediated DMR signal [2]: no obvious effect on both thrombin- and trypsin-mediated DMR signal
Effect of pretreatment on trypsin-mediated DMR signal [3]: no obvious effect on both thrombin- and trypsin-mediated DMR signal

methyl-β-cyclodextrin [mβCD]
Effect of pretreatment on DMR induced by thrombin or trypsin [3]: a dose-dependent alteration of the optical signatures induced by thrombin or trypsin
Effect of pretreatment on [Ca2+]i elevation mediated by trypsin or thrombin [4]: a dose-dependent suppression of [Ca^2+]i elevation mediated by either trypsin or thrombin

Nc1ncnc2c1cnn2-c1ccccc1 [PP3]
Effect on cell responses mediated with 1 mM H2O2 (quiescent A431 cells): did not affect the responses

OO [H2O2, hydrogen peroxide]
DMR signal (shift in incident angle) (quiescent A431 cells; 1 mM H2O2): triggered significant mass redistribution within the sensing volume of the sensors
PWHM of resonant peak of TM0 mode (quiescent A431 cells; 1 mM H2O2): slightly increased the PWHM of the resonant peak of TM0 mode
DMR signal (quiescent A431 cells; high redox state cells): a characteristic of cells undergoing apoptosis
DMR signal (quiescent A431 cells; low redox state cells): a typical DMR signal for the low redox state of cells
DMR signal and Live/Dead cell staining (quiescent A431 cells; H2O2 at or above 16 mM): the cells treated with high doses of H2O2 undergo apoptosis
DMR signal (wavelength shift) (quiescent A431 cells; H2O2 at or below about 8 mM): a typical curve that consists of two major events: an initial peak and a prolonged increased mass signal

SFFLR-amide [PAR1-AP]
Class of optical signature (DMR) induced by agonist [5]: first class of optical signatures
Effect of preceding stimulation on trypsin-induced DMR signal ([3]; interval about 1 hour): significantly suppresses but not completely eliminates the trypsin-induced DMR signal
Effect of preceding stimulation on trypsin-induced [Ca2+]i elevation ([4]; interval 6 min, 200 nM trypsin): significantly attenuated but not completely eliminates the trypsin-induced [Ca^2+]i elevation
Maximal [Ca2+]i elevation ([4]; quiescent A431, Fluo-3): 74.3±3.9%
[Ca2+]i elevation after preceding stimulation with thrombin ([4]; thrombin 40 unit/ml first, interval 6 min): 32±4.3%

OC[C@H]1O[C@@H]2O[C@H]3[C@H](O)[C@@H](O)[C@@H](O[C@H]4[C@H](O)[C@@H](O)[C@@H](O[C@H]5[C@H](O)[C@@H](O)[C@@H](O[C@H]6[C@H](O)[C@@H](O)[C@@H](O[C@H]7[C@H](O)[C@@H](O)[C@@H](O[C@H]1[C@H](O)[C@H]2O)O[C@@H]7CO)O[C@@H]6CO)O[C@@H]5CO)O[C@@H]4CO)O[C@@H]3CO [αCD, α-cyclodextrin]
Effect of pretreatment on DMR induced by thrombin or trypsin [3]: little effect on both agonist-induced DMR responses
Cell detachment ([3]; high doses (>10 mM)): resulted in significant amounts of cells detached from the surface of the biosensors
Effect of pretreatment on [Ca2+]i elevation mediated by trypsin or thrombin [4]: had no effect on both trypsin and thrombin-induced responses
